How the values were obtained:
HS-PSS [1] = assay: drug sensitivity score (DSS, CellTiter-Glo viability, 72 h) (DSS (dimensionless)); higher = more sensitive; extreme values may be limits of the assay
In short: (§1)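 For this screen, 384-well plates were preprinted with each compound at five concentrations in 10-fold steps and seeded with MPNST cell lines or primary human Schwann cells at 750–1000 cells per well. Incubation lasted 72 h at 37 °C, 5% CO2, and CellTiter-Glo ATP luminescence, scaled between vehicle and positive-control wells and averaged over duplicates where available, served as viability. Logistic fits with four parameters were applied. Relative IC50 (censored at the top concentration) and drug sensitivity score derive from these fits, and percent inhibition is at the top concentration.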

YST-1 [2] = assay: as above
In short: as §1

HS-Sch-2 [3] = assay: as above
In short: as §1

HS-PSS [4] = assay: drug sensitivity score (DSS, CellTox-Green cytotoxicity, 72 h) (DSS (dimensionless)); higher = more cytotoxic; extreme values may be limits of the assay
In short: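 MPNST cell lines and primary human Schwann cells were grown for 72 h at 37 °C in 384-well plates containing five 10-fold compound dilutions. CellTox-Green, added before seeding at a final 1:1000 dilution, gave fluorescence from DNA released by disrupted cells, and signals were scaled to vehicle and positive-control wells. Curves were fitted with a four-parameter logistic model. Drug sensitivity score and relative IC50 come from these fits, with IC50 censored at the top concentration.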

HS-PSS [5] = assay: % inhibition of CellTiter-Glo viability at highest tested concentration (72 h), relative to DMSO and benzethonium chloride controls; higher = more inhibition
In short: as §1

YST-1 [6] = assay: as above
In short: as §1

HS-Sch-2 [7] = assay: as above
In short: as §1

| SMILES | drug sensitivity score (HS-PSS [1]) | drug sensitivity score (YST-1 [2]) | drug sensitivity score (HS-Sch-2 [3]) | drug sensitivity score (HS-PSS [4]) | % inhibition (HS-PSS [5]) [%] | % inhibition (YST-1 [6]) [%] | % inhibition (HS-Sch-2 [7]) [%] |
| --- | --- | --- | --- | --- | --- | --- | --- |
| CCn1cc(-c2ccnc3[nH]c(-c4cccc(CN(C)C)c4)cc23)c(-c2ccc(NC(=O)N(C)C)cc2)n1 (max concentration tested 1000 nM) | 4.28 | 10.8 | 4.77 | 0 | 46.2 | 33.4 | 54 |
| CNC(=O)c1ccc(C)c(-n2c(C)cc(OCc3ccc(F)cc3F)c(Br)c2=O)c1 (max concentration tested 1000 nM) | 0 | 5.16 | 0 | 0 | 8.35 | 38.4 | 4 |
| C[C@@H](Oc1ccc2[nH]nc(/C=C/c3cnn(CCO)c3)c2c1)c1c(Cl)cncc1Cl (max concentration tested 1000 nM) | 7.62 | 6.1 | 6.87 | 2.66 | 91 | 55.4 | 67.9 |
| C[C@H]1Oc2cc(cnc2N)-c2c(nn(C)c2C#N)CN(C)C(=O)c2ccc(F)cc21 (max concentration tested 1000 nM) | 12.3 | 0 | 0.53 | 0 | 53.9 | 3.35 | 14.9 |
| O=C(NOC[C@H](O)CO)c1ccc(F)c(F)c1Nc1ccc(I)cc1F (max concentration tested 1000 nM) | 0.01 | 0 | 0.69 | 0 | 12.4 | -8.18 | 15 |
| CCOc1ccn(-c2ccc(F)cc2)c(=O)c1C(=O)Nc1ccc(Oc2ccnc(N)c2Cl)c(F)c1 (max concentration tested 2500 nM) | 1.43 | 0 | 0 | 0 | 15.6 | 2.08 | 4.22 |
| CNC(=O)c1c(F)cccc1Nc1nc(Nc2cc3c(cc2OC)CCN3C(=O)CN(C)C)nc2[nH]ccc12 (max concentration tested 2500 nM) | 13.9 | 11.8 | 0.22 | 1.53 | 59.1 | 66.3 | 11.8 |
| Cc1cccc(CC(=O)N2CCc3c2ccc(-c2cn(C)c4ncnc(N)c24)c3F)n1 (max concentration tested 2500 nM) | 0.96 | 0.36 | 0.16 | 0 | 29.6 | 14.4 | 16.1 |
| OCCn1cc(-c2cnc3nnn(Cc4ccc5ncccc5c4)c3n2)cn1 (max concentration tested 2500 nM) | 0.05 | 0.62 | 0 | 0 | 9.08 | 18.5 | 0.31 |
| CNC(=O)c1ccccc1Nc1nc(Nc2ccc3c(c2OC)CCC[C@H](N2CCN(CCO)CC2)C3)ncc1Cl (max concentration tested 5000 nM) | 15 | 8.71 | 7.99 | 2.99 | 86.5 | 82.8 | 98.5 |
| Cc1ncc(Cl)cc1NCc1ccc(C(=O)N[C@@H](CC2CCCC2)C(=O)NC2CC2)s1 (max concentration tested 5000 nM) | 0 | 8.01 | 0.17 | 0 | 10.8 | 45.9 | 12.8 |
| CC(=O)NCC(=O)N1[C@@H]2CC[C@H]1c1ccc(Nc3ncc(C(F)(F)F)c(NC4CCC4)n3)cc12 (max concentration tested 10000 nM) | 9.91 | 10.5 | 11.5 | 1.86 | 87.8 | 82.8 | 99.3 |
| CC(C)(C)C[C@@H]1N[C@@H](C(=O)N[C@H]2CC[C@H](O)CC2)[C@H](c2cccc(Cl)c2F)[C@]12C(=O)Nc1cc(Cl)ccc12 (max concentration tested 10000 nM) | 1.67 | 21.9 | 0.86 | 0 | 36.2 | 100 | 19.6 |
| CC(C)CC(=O)Nc1n[nH]c2c1CN(C(=O)C1CCN(C)CC1)C2(C)C (max concentration tested 10000 nM) | 11.5 | 11.8 | 10.2 | 2.57 | 83.7 | 99.8 | 101 |
| CC(C)Oc1ccc(C(=O)N[C@H](CNC(=O)CN(C)C)Cc2ccc(-c3cn4cccc([C@H](C)O)c4n3)cc2)cc1Cl (max concentration tested 10000 nM) | 8.56 | 19.5 | 24.1 | 1.48 | 66.7 | 62 | 95.2 |
| CCNC(=O)C[C@@H]1N=C(c2ccc(Cl)cc2)c2cc(OC)ccc2-n2c(C)nnc21 (max concentration tested 10000 nM) | 7.28 | 10.2 | 8.49 | 0 | 58.4 | 65.3 | 63.1 |
| CCc1cc(Nc2nccc(-c3c(-c4ccc(OC)c(C(=O)Nc5c(F)cccc5F)c4)nc4ccccn34)n2)c(OC)cc1N1CCC(N2CCN(S(C)(=O)=O)CC2)CC1 (max concentration tested 10000 nM) | 0 | 16.1 | 0.89 | 0 | 4.32 | 52.3 | 7.21 |
| CCn1c(-c2nonc2N)nc2c(C#CC(C)(C)O)ncc(OC[C@H]3CCCNC3)c21 (max concentration tested 10000 nM) | 0 | 0 | 3.35 | 0 | 3.9 | -24.9 | 39 |
| CN(c1ncccc1CNc1nc(Nc2ccc3c(c2)CC(=O)N3)ncc1C(F)(F)F)S(C)(=O)=O (max concentration tested 10000 nM) | 3.86 | 7.85 | 5.18 | 0.03 | 73.3 | 98.6 | 99.2 |

| SMILES | drug sensitivity score (HS-PSS [1]) | drug sensitivity score (YST-1 [2]) | drug sensitivity score (HS-Sch-2 [3]) | drug sensitivity score (HS-PSS [4]) | % inhibition (HS-PSS [5]) [%] | % inhibition (YST-1 [6]) [%] | % inhibition (HS-Sch-2 [7]) [%] |
| --- | --- | --- | --- | --- | --- | --- | --- |
| CNc1nc(-c2ccc3c(N)n[nH]c3c2)cc(N2C[C@@H](C(=O)NC3CCCCC3)CC[C@H]2C)n1 (max concentration tested 10000 nM) | 1.2 | 7.15 | 0.1 | 0 | 27.7 | 54 | 14.3 |
| CNc1ncc2cc(-c3cc(NC(=O)NCCC(C)(C)C)c(F)cc3C)c(C)nc2n1 (max concentration tested 10000 nM) | 3.13 | 6.37 | 10.8 | 0.82 | 69.1 | 46.5 | 55.9 |
| COCC(=O)NC/C=C/c1ccc2ncnc(Nc3ccc(Oc4ccc(C)nc4)c(C)c3)c2c1 (max concentration tested 10000 nM) | 5.3 | 0.62 | 3.05 | 0 | 56.7 | 19.9 | 32.2 |
| COc1cc2ncnc(Oc3cccc(NC(=O)Nc4cc(C(C)(C)C(F)(F)F)on4)c3)c2cc1OC (max concentration tested 10000 nM) | 0 | 0.17 | 0 | 0 | 3.34 | 3.62 | -3.7 |
| COc1ccc(Cn2ccc3ccc(C(=O)NO)cc32)cc1 (max concentration tested 10000 nM) | 0.33 | 5.14 | 2.02 | 0 | 18.1 | 56.2 | 46.8 |
| CS(=O)(=O)N1CCc2c(-c3cnc(N)nc3)nc(N3CCOCC3)nc21 (max concentration tested 10000 nM) | 4.81 | 14.4 | 3.35 | 0 | 42.7 | 77.8 | 32 |
| C[C@@H](Oc1cc(-n2cnc3ccc(CN4CCN(C)CC4)cc32)sc1C(N)=O)c1ccccc1C(F)(F)F (max concentration tested 10000 nM) | 14.6 | 27.3 | 34.6 | 5.06 | 101 | 86.8 | 99.8 |
| Cc1c(NC(=O)OC[C@@H]2COCCN2)cn2ncnc(Nc3ccc4c(cnn4Cc4cccc(F)c4)c3)c12 (max concentration tested 10000 nM) | 5.43 | 2.68 | 3.4 | 0.6 | 71.3 | 26.8 | 44.4 |
| Cc1nc(Nc2n[nH]c3c2CN(C(=O)N[C@H](CN(C)C)c2ccccc2)C3(C)C)c2sccc2n1 (max concentration tested 10000 nM) | 27.9 | 24.2 | 15.4 | 10.6 | 86.4 | 101 | 101 |
| Cn1cc(-c2ccc3nnc(C(F)(F)c4ccc5ncccc5c4)n3n2)cn1 (max concentration tested 10000 nM) | 1.21 | 0.54 | 0.05 | 0 | 17.4 | 18.4 | 11.5 |
| Cn1cc(C2=Nc3cc(NC(=O)C(N)C4CCCCC4)cc4c3C2=CNNC4=O)cn1 (centres undefined) (max concentration tested 10000 nM) | 8.91 | 14.8 | 22.7 | 0 | 43.5 | 51.3 | 84.3 |
| NC[C@@](O)(c1ccc(Cl)cc1)c1ccc(-c2cn[nH]c2)cc1 (max concentration tested 10000 nM) | 7.75 | 4.33 | 8.76 | 6.26 | 97.9 | 73.8 | 91.8 |
| O=C(NC[C@H](O)CN1CCc2ccccc2C1)c1cc(NC2COC2)ncn1 (max concentration tested 10000 nM) | 0.24 | 0.06 | 0.29 | 0 | 17.6 | 14.1 | 10.7 |
| O=C(NOCC1CC1)c1ccc(F)c(F)c1Nc1ccc(I)cc1Cl (max concentration tested 10000 nM) | 0.51 | 1.6 | 5.05 | 0 | 21.5 | 24.6 | 55.9 |
| O=C(O)c1ccc(CN2CCC(CN[C@@H]3C[C@H]3c3ccccc3)CC2)cc1 (max concentration tested 10000 nM) | 0 | 0 | 0 | 0 | 2.06 | -3.86 | -4.91 |
| O=C1NC(=O)/C(=C/c2ccc3nccc(-c4ccncc4)c3c2)S1 (max concentration tested 10000 nM) | 2.69 | 9.37 | 1.71 | 0 | 49.6 | 86.6 | 37.8 |
| O=c1[nH]c(C2CCCN2)nc2c1oc1ccc(Cl)cc12 (centres undefined) (max concentration tested 10000 nM) | 2.86 | 6.83 | 2.7 | 0 | 33.3 | 63.8 | 19.3 |
| NCC(=O)Nc1ccc(-n2nc(C(F)(F)F)cc2-c2ccc3c(ccc4ccccc43)c2)cc1 (max concentration tested 25000 nM) | 4.86 | 5.55 | 7.03 | 7.95 | 101 | 101 | 101 |
